Experimental data published in US4512976A, “Antibiotic stubomycin and process for the production thereof” (The Kitasato Institute, priority 1980, dated 1985).
≈ marks a conversion by molar mass, not a printed value.

Assays:
Sarcina lutea ATCC 1001 = test: Antimicrobial activity, MIC by agar dilution method; format: cell-based; settings: Sarcina lutea ATCC 1001, agar dilution method
Aspergillus niger = test: as above; format: cell-based
mice = test: Acute toxicity in mice; format: in vivo
Experimental: Acute toxicity (LD50) in mice; approximately 400 mg/kg (i.p.), and over 1000 mg/kg (p.o.)

[1] = system: Ehrlich ascites carcinoma; test: Antitumor activity on Ehrlich ascites carcinoma; settings: i.p.; for ILS (Increased life span) Ehrlich: vs untreated control
[2] = system: Staphylococcus aureus FDA-209P; test: Antimicrobial activity, MIC by agar dilution method; format: cell-based
Candida albicans = test: as above; format: cell-based
Piricularia oryzae = format: cell-based
Xanthomonas oryzae = format: cell-based; settings: agar dilution method
Pseudomonas aeruginosa = test: Antimicrobial activity, MIC by agar dilution method; format: cell-based
Alternaria kikuchiana = test: as above; format: cell-based
Mycobacterium smegmatis = test: as above; format: cell-based
[3] = system: Trichophyton interdigitalis; test: as above; format: cell-based
Saccharomyces sake = test: as above; format: cell-based
Escherichia coli NIHJ = test: as above; format: cell-based
[4] = system: Bacillus subtilis PCI 219; test: as above; format: cell-based; settings: Bacillus subtilis PCI 219, agar dilution method
leukemia P388 = test: Antitumor activity on leukemia P388; settings: i.p.; for ILS (Increased life span) P388: vs untreated control
Microsporum gypseum = test: Antimicrobial activity, MIC by agar dilution method; format: cell-based
[5] = Day 1, 75 mg/kg/day, total 75 mg/kg
[6] = Day 1, 150 mg/kg/day, total 150 mg/kg
[7] = Day 1, 300 mg/kg/day, total 300 mg/kg
[8] = Days 1, 5, 9, 25 mg/kg/day, total 75 mg/kg
[9] = Days 1, 5, 9, 50 mg/kg/day, total 150 mg/kg
[10] = Days 1~9, 8.8 mg/kg/day, total 75 mg/kg
[11] = Days 1~9, 16.7 mg/kg/day, total 150 mg/kg
[12] = Days 1~9, 33.3 mg/kg/day, total 300 mg/kg

**Q.** For `CO[C@H]1C[C@@H]2\C=C(C)/C=C/C=C\C(=O)N[C@H](c3ccccc3)C/C=C/CC[C@H](O)CC(=O)C2=C1O` [stubomycin], which “Minimum inhibitory concentration (MIC)” value (Sarcina lutea ATCC 1001) is on record?
**A.** 0.4 µg/mL (≈ 0.838 µM)

**Q.** And the “Minimum inhibitory concentration (MIC)” value (Aspergillus niger)?
**A.** > 100 µg/mL

**Q.** And the “Acute toxicity (LD50)” value (mice; i.p.)?
**A.** approximately 400 mg/kg

**Q.** And the “Acute toxicity (LD50)” value (mice; p.o.)?
**A.** over 1000 mg/kg

**Q.** What about the “MSD (Median survival day) Ehrlich” value [1, 5] of the same molecule?
**A.** 28 days

**Q.** And the “Number of cured mice, Ehrlich” value [1, 5]?
**A.** 1

**Q.** And the “ILS (Increased life span) Ehrlich” value [1, 5]?
**A.** 47%

**Q.** And the “MSD (Median survival day) Ehrlich” value [1, 6]?
**A.** 51 days

**Q.** And the “ILS (Increased life span) Ehrlich” value [1, 6]?
**A.** 168%

**Q.** What about the “MSD (Median survival day) Ehrlich” value [1, 7] of the same molecule?
**A.** 21 days

**Q.** What about the “ILS (Increased life span) Ehrlich” value [1, 7] of the same molecule?
**A.** 11%

**Q.** What about the “MSD (Median survival day) Ehrlich” value [1, 8] of the same molecule?
**A.** 33 days

**Q.** And the “Number of cured mice, Ehrlich” value [1, 8]?
**A.** 1

**Q.** What about the “ILS (Increased life span) Ehrlich” value [1, 8] of the same molecule?
**A.** 74%

**Q.** And the “MSD (Median survival day) Ehrlich” value [1, 9]?
**A.** 16 days

**Q.** And the “ILS (Increased life span) Ehrlich” value [1, 9]?
**A.** -16%

**Q.** And the “ILS (Increased life span) Ehrlich” value [1, 10]?
**A.** 11%

**Q.** And the “MSD (Median survival day) Ehrlich” value [1, 11]?
**A.** 50 days

**Q.** And the “Number of cured mice, Ehrlich” value [1, 11]?
**A.** 1

**Q.** And the “ILS (Increased life span) Ehrlich” value [1, 11]?
**A.** 163%

**Q.** And the “MSD (Median survival day) Ehrlich” value [1, 12]?
**A.** 33 days

**Q.** And the “Number of cured mice, Ehrlich” value [1, 12]?
**A.** 1

**Q.** And the “ILS (Increased life span) Ehrlich” value [1, 12]?
**A.** 74%

**Q.** And the “MSD (Median survival day) Ehrlich” value ([1]; Days 1~9, total 75 mg/kg)?
**A.** 21 days

**Q.** What about the “Minimum inhibitory concentration (MIC)” value [2] of the same molecule?
**A.** 3.1 µg/mL (≈ 6.49 µM)

**Q.** And the “Minimum inhibitory concentration (MIC)” value (Candida albicans)?
**A.** > 100 µg/mL

**Q.** What about the “Minimum inhibitory concentration (MIC)” value (Piricularia oryzae) of the same molecule?
**A.** 3.1 µg/mL (≈ 6.49 µM)

**Q.** What about the “Minimum inhibitory concentration (MIC)” value (Xanthomonas oryzae) of the same molecule?
**A.** > 100 µg/mL

**Q.** What about the “Minimum inhibitory concentration (MIC)” value (Pseudomonas aeruginosa) of the same molecule?
**A.** > 200 µg/mL

**Q.** What about the “Minimum inhibitory concentration (MIC)” value (Alternaria kikuchiana) of the same molecule?
**A.** 6.3 µg/mL (≈ 13.2 µM)

**Q.** What about the “Minimum inhibitory concentration (MIC)” value (Mycobacterium smegmatis) of the same molecule?
**A.** 3.1 µg/mL (≈ 6.49 µM)

**Q.** What about the “Minimum inhibitory concentration (MIC)” value [3] of the same molecule?
**A.** 6.3 µg/mL (≈ 13.2 µM)

**Q.** What about the “Minimum inhibitory concentration (MIC)” value (Saccharomyces sake) of the same molecule?
**A.** > 200 µg/mL

**Q.** What about the “Minimum inhibitory concentration (MIC)” value (Escherichia coli NIHJ) of the same molecule?
**A.** > 200 µg/mL

**Q.** And the “Minimum inhibitory concentration (MIC)” value [4]?
**A.** 0.4 µg/mL (≈ 0.838 µM)

**Q.** And the “MSD (Median survival day) P388” value (leukemia P388; [5])?
**A.** 17 days

**Q.** And the “ILS (Increased life span) P388” value (leukemia P388; [5])?
**A.** 42%

**Q.** What about the “MSD (Median survival day) P388” value (leukemia P388; [6]) of the same molecule?
**A.** 17 days

**Q.** And the “ILS (Increased life span) P388” value (leukemia P388; [6])?
**A.** 42%

**Q.** And the “MSD (Median survival day) P388” value (leukemia P388; [7])?
**A.** 17 days

**Q.** What about the “ILS (Increased life span) P388” value (leukemia P388; [7]) of the same molecule?
**A.** 42%

**Q.** And the “MSD (Median survival day) P388” value (leukemia P388; [8])?
**A.** 16 days

**Q.** What about the “ILS (Increased life span) P388” value (leukemia P388; [8]) of the same molecule?
**A.** 33%

**Q.** What about the “MSD (Median survival day) P388” value (leukemia P388; [9]) of the same molecule?
**A.** 15 days

**Q.** What about the “ILS (Increased life span) P388” value (leukemia P388; [9]) of the same molecule?
**A.** 25%

**Q.** And the “MSD (Median survival day) P388” value (leukemia P388; [10])?
**A.** 15 days

**Q.** What about the “ILS (Increased life span) P388” value (leukemia P388; [10]) of the same molecule?
**A.** 25%

**Q.** And the “MSD (Median survival day) P388” value (leukemia P388; [11])?
**A.** 11 days

**Q.** And the “ILS (Increased life span) P388” value (leukemia P388; [11])?
**A.** -8%

**Q.** What about the “MSD (Median survival day) P388” value (leukemia P388; [12]) of the same molecule?
**A.** 9 days

**Q.** What about the “ILS (Increased life span) P388” value (leukemia P388; [12]) of the same molecule?
**A.** -25%

**Q.** And the “Minimum inhibitory concentration (MIC)” value (Microsporum gypseum)?
**A.** 12.5 µg/mL (≈ 26.2 µM)
